Measured values: ChEMBL document CHEMBL4825706, “Synthesis and biological evaluation of selenogefitinib for reducing bleomycin-induced pulmonary fibrosis” (Bioorg Med Chem Lett, 2021)
Activity calls are given as the source filed them. The calls are words filed in the database; no cut-off is given here.

Columns and labels:
Mus musculus [1] = test: Antifibrotic activity in C57BL mouse model of BLM-induced lung fibrosis assessed as reduction in alveolar wall thickness by measuring lung coefficient at 60 mg/kg by hematoxylin and eosin staining based assay (reference value: 12.89 +/- 2.52 g); assay type: functional
Mus musculus [2] = test: Antifibrotic activity in C57BL mouse model of BLM-induced lung fibrosis assessed as reduction in collagen deposition in the lung at 60 mg/kg by masson staining method; assay type: functional, organism-based
Mus musculus [3] = test: Antifibrotic activity in C57BL mouse model of BLM-induced lung fibrosis assessed as TNF-alpha level in blood at 60 mg/kg measured after 14 days by flow cytometry (reference value: 3.12 +/- 0.11 pg/ml); assay type: functional; conditions: time 14 day
Mus musculus [4] = test: Antifibrotic activity in C57BL mouse model of BLM-induced lung fibrosis assessed as IL-4 level in blood at 60 mg/kg measured after 14 days by flow cytometry (reference value: 2.72 +/- 0.14 pg/ml); assay type: functional; conditions: time 14 day
Mus musculus [5] = test: Antifibrotic activity in C57BL mouse model of BLM-induced lung fibrosis assessed as IL-6 level in blood at 60 mg/kg measured after 14 days by flow cytometry (reference value: 2.36 +/- 0.16 pg/ml); assay type: functional; conditions: time 14 day
Mus musculus [6] = test: Antifibrotic activity in C57BL mouse model of BLM-induced lung fibrosis assessed as HYP level at 60 mg/kg (reference value: 5.31 +/- 0.79 ug/mg); assay type: functional
Mus musculus [7] = test: Antifibrotic activity in C57BL mouse model of BLM-induced lung fibrosis assessed as MDA content at 60 mg/kg measured after 14 days (reference value: 9.93 +/- 1.41 nmol/ml); assay type: functional; conditions: time 14 day
[8] = Cytotoxicity against human HBE cells assessed as inhibition of cell growth measured by CCK8 assay; assay type: ADME, cell-based
[9] = target: Epidermal growth factor receptor (Homo sapiens, UniProt P00533); test: Inhibition of EGFR (unknown origin) by ADP-Glo kinase assay
Sequence of Epidermal growth factor receptor (P00533 whole entry): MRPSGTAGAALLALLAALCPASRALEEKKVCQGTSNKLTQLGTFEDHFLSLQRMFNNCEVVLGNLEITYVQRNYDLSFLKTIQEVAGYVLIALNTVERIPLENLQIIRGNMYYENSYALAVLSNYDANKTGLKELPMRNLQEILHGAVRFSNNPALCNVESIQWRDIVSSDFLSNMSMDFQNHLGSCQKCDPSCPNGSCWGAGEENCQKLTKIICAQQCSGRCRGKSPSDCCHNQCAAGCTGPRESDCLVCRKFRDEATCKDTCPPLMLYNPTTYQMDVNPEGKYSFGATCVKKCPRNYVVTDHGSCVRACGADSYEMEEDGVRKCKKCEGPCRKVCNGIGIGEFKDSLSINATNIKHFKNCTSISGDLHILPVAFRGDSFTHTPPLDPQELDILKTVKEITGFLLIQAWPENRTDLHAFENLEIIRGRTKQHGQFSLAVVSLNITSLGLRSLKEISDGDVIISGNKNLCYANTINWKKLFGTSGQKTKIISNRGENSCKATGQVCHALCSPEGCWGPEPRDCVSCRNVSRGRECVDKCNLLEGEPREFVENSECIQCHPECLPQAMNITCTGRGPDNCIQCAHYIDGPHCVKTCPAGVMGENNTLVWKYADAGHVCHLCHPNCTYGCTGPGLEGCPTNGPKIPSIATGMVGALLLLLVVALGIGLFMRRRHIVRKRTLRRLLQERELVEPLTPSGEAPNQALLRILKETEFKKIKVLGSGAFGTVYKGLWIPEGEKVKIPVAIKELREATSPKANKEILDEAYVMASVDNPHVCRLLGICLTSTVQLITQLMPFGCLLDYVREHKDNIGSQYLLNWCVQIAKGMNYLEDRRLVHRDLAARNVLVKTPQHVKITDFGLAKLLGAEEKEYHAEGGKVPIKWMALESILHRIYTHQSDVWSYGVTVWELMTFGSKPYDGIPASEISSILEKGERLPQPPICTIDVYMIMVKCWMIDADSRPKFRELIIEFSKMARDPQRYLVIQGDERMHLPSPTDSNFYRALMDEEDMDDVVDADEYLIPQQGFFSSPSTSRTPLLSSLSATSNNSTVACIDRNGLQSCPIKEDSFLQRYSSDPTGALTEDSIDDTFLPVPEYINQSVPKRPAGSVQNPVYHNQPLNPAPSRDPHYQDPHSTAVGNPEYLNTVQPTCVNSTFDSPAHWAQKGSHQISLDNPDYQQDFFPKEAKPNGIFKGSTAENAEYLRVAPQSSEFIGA

Mus musculus [10] = test: Antifibrotic activity in C57BL mouse model of BLM-induced lung fibrosis assessed as reduction in infiltration of inflammatory cells at 60 mg/kg by hematoxylin and eosin staining based assay; assay type: functional, organism-based
L02 = test: Cytotoxicity against human L02 cells assessed as inhibition of cell growth measured by CCK8 assay; assay type: functional, cell-based

Q: Which results are given for COc1cc2ncnc(Nc3ccc(F)c(Cl)c3)c2cc1OCCCN1CCOCC1 [GEFITINIB]?
A: Activity (Mus musculus [1]): 9.7 g; Activity (Mus musculus [2]): Active; Activity (Mus musculus [3]): 2.39 pg/mL; Activity (Mus musculus [4]): 2.17 pg/mL; Activity (Mus musculus [5]): 1.77 pg/mL; Activity (Mus musculus [6]): 3.39 µg/mg; Activity (Mus musculus [7]): 8.92 nmol/mL

Q: What does the source list for COc1cc2ncnc(Nc3ccc(F)c(Cl)c3)c2cc1OCCCN1CC[Se]CC1?
A: IC50 [8]: 21.8 µM; Activity (Mus musculus [1]): 7.56 g; Activity (Mus musculus [2]): Active; Activity (Mus musculus [3]): 1.56 pg/mL; IC50 [9]: 0.0253 µM; Activity (Mus musculus [4]): 1.72 pg/mL; Activity (Mus musculus [5]): 1 pg/mL; Activity (Mus musculus [6]): 3.01 µg/mg; Activity (Mus musculus [10]): Active; Activity (Mus musculus [7]): 6.13 nmol/mL; IC50 (L02): 13.8 µM
